Like-named read-outs stand apart in the source and are kept apart here. *1 amine or outer side, *2 acyl side, *3 side chain or, on linkers, in order; H or OH if unused. Where a SMILES comes first, the peptide text is derived from it. Bridges are numbered along the chain shown (N, C = ends). [ ]: non-standard residue; d: D form. The star is where a group is joined. ξ: configuration not given here. X4 = O=C(O)CN1CCN(CC(=O)O)CCN(CC(=O)NCCCOCCOCCOCCCN*)CCN(CC(=O)O)CC1; X1 = NC(=O)CC[C@H](N[*:1])C(=O)C[C@@H](Cc1ccccc1)C(=O)[*:2]; X11 = O=C(O)CN1CCN(CC(=O)O)CCN([C@H](CCC(=O)*)C(=O)O)CC1; DOTA = O=C(O)CN1CCN(CC(=O)O)CCN(CC(=O)*)CCN(CC(=O)O)CC1; Maleimide(3,4-diyl) = O=C1NC(=O)C([*:2])=C1[*:1]; X7 = CN1C(=O)C([*:1])=C([*:2])C1=O; ξThr(3R) = C[C@@H](O)C(N)C(=O)O; Suc = O=C(CCC(=O)[*:2])[*:1]; Nle = CCCC[C@H](N)C(=O)O; Hexanoyl = CCCCCC(=O)*; AEEA = NCCOCCOCC(=O)O; CO = O=C([*:1])[*:2]; NHBu = CCCCN*
How the values were obtained:
[1] = molecular target: T1, FAP-expressing human WI-38 fibroblasts (Homo sapiens, UniProt Q12884); test: Competitive FACS binding assay;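 note: flow cytometry read-out of median Cy5 fluorescence on the cells, plotted versus test compound concentration, with IC50 derived by four-parameter logistic curve fitting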
T1 construct: FAP-expressing human WI-38 fibroblasts (ECACC) were cultured in EMEM; host or cells: WI-38 human fibroblasts
T1 sequence (Q12884 whole entry): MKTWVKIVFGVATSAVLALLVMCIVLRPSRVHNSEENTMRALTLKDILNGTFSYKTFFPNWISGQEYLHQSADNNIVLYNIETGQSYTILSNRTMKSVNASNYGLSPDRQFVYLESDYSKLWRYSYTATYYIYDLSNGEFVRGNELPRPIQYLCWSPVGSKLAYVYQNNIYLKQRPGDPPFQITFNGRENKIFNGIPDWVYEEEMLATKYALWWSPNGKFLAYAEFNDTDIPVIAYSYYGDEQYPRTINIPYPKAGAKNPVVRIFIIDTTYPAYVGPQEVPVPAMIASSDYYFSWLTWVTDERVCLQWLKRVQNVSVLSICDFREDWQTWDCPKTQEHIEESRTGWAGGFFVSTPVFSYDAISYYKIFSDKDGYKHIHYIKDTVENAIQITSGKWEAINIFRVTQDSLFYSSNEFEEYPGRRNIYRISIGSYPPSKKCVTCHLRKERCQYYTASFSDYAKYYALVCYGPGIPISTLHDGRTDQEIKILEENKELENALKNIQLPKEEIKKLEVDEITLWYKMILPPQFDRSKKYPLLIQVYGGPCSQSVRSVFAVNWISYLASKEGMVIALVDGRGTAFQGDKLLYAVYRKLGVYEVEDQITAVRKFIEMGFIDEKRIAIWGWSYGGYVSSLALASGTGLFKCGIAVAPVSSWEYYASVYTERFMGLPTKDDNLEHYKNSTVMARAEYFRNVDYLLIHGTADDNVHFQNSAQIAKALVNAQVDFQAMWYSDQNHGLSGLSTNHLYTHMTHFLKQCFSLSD

Recombinant human FAP = molecular target: T2, Recombinant human FAP (Homo sapiens, UniProt Q12884); test: FRET-based FAP protease activity assay; type: biochemical
T2 construct: purchased R&D systems 3715-SE
T2 sequence (Q12884 26-760 limits assumed): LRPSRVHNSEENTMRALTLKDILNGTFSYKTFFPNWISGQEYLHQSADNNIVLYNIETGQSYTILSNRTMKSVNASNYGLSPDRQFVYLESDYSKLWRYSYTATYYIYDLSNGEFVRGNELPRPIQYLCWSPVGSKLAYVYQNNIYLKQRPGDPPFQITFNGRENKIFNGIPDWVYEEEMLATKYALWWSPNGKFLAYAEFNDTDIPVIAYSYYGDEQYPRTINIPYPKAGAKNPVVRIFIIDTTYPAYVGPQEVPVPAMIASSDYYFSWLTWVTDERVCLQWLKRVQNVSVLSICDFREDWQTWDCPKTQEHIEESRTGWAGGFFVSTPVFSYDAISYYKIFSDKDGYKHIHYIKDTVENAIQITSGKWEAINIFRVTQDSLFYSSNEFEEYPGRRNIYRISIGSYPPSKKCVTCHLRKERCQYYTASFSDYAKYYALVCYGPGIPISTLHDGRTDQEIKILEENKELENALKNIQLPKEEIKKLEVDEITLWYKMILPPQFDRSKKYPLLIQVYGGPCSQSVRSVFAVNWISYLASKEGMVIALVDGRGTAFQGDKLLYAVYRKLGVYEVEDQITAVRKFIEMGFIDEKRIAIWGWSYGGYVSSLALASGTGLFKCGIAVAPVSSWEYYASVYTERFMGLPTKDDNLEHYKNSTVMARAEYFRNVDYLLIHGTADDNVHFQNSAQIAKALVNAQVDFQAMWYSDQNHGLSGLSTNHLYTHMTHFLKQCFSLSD

[2] = competition with 3 nM Cy5-labeled compound, WI-38 fibroblasts, 4° C., 1 hour, read-out: pIC50 Category (FACS) (converted)
[3] = recombinant human FAP, FRET-peptide substrate, 37° C., read-out: pIC50 Category (Activity) (converted)
[4] = read-out: pIC50 (highest activity categories, FACS binding) (converted)
[5] = read-out: pIC50 (highest activity categories, FAP activity) (converted)

SMILES	IC50 [1, 2]	IC50 (Recombinant human FAP; [3])	IC50 [1, 4]	IC50 (Recombinant human FAP; [5])	IC50 [1]	IC50 (Recombinant human FAP)
CCCCCC(=O)N[C@H]1CSC2=C(SC[C@@H](C(=O)N[C@@H](CCCCNC(=O)CN3CCN(CC(=O)O)CCN(CC(=O)O)CCN(CC(=O)O)CC3)CC(=O)O)NC(=O)[C@H](Cc3ccccc3)NC(=O)[C@H](CCC(N)=O)NC(=O)[C@H]([C@@H](C)O)NC(=O)[C@@H]3CCCN3C(=O)[C@@H]3CCCN3C1=O)C(=O)NC2=O [Compound 2010, Hex-[Cys(mli)-Pro-Pro-Thr-Gln-Phe-Cys]-Bhk(DOTA)-OH]	< 100 nM	< 100 nM				
CCCC[C@H](NC(=O)CN1CCN(CC(=O)O)CCN(CC(=O)O)CCN(CC(=O)O)CC1)C(=O)N[C@H]1CSSC[C@@H](C(=O)N[C@@H](CC(=O)O)C(N)=O)NC(=O)[C@H](Cc2ccccc2)NC(=O)[C@H](CCC(=O)O)NC(=O)[C@H]([C@@H](C)O)NC(=O)[C@@H]2CCCN2C(=O)[C@@H]2CCCN2C1=O [Compound 1004, DOTA-Nle-[Cys-Pro-Pro-Thr-Glu-Phe-Cys]-Asp-NHd2] (HELM PEPTIDE1{[O=C(O)CN1CCN(CC(=O)O)CCN(CC(=O)[*:2])CCN(CC(=O)O)CC1].[Nle].C.P.P.T.E.F.C.D.[am]}$PEPTIDE1,PEPTIDE1,3:R3-9:R3$$$V2.0)	< 100 nM	< 100 nM				
CCCC[C@H](NC(=O)COCCOCCNC(=O)CN1CCN(CC(=O)O)CCN(CC(=O)O)CCN(CC(=O)O)CC1)C(=O)N[C@H]1CSSC[C@@H](C(=O)N[C@@H](CC(=O)O)C(=O)N[C@@H](Cc2c[nH]cn2)C(=O)N[C@@H](Cc2ccccc2)C(=O)N[C@@H](CCCNC(=N)N)C(=O)N[C@@H](CC(=O)O)C(N)=O)NC(=O)[C@H](Cc2ccccc2)NC(=O)[C@H](CCC(=O)O)NC(=O)[C@H]([C@@H](C)O)NC(=O)[C@@H]2CCCN2C(=O)[C@@H]2CCCN2C1=O [Compound 1005, DOTA-O2Oc-Nle-[Cys-Pro-Pro-Thr-Glu-Phe-Cys]-Asp-His-Phe-Arg-Asp-NH2] (HELM PEPTIDE1{[O=C(O)CN1CCN(CC(=O)O)CCN(CC(=O)[*:2])CCN(CC(=O)O)CC1].[O=C(COCCOCCN[*:1])[*:2]].[Nle].C.P.P.T.E.F.C.D.H.F.R.D.[am]}$PEPTIDE1,PEPTIDE1,4:R3-10:R3$$$V2.0)	< 100 nM	< 100 nM	< 100 nM	< 100 nM		
CCCCCC(=O)N[C@H]1CSC2=C(SC[C@@H](C(=O)N[C@@H](CC(=O)O)C(N)=O)NC(=O)[C@H](Cc3ccccc3)NC(=O)[C@H](CCC(N)=O)NC(=O)[C@H]([C@@H](C)O)NC(=O)[C@@H]3CCCN3C(=O)[C@@H]3CCCN3C1=O)C(=O)N(CCCOCCOCCOCCCNC(=O)C(CNCCN)CNCCN)C2=O [Compound 2026, Hex-[Cys(mli(N4Ac-Ttd))-Pro-Pro-Thr-Gln-Phe-Cys]-Asp-NH2] (HELM PEPTIDE1{[CCCCCC(=O)[*:2]].C.P.P.T.Q.F.C.D.[am]}|CHEM1{[NCCNCC(CNCCN)C(=O)NCCCOCCOCCOCCCN1C(=O)C([*:1])=C([*:2])C1=O]}$PEPTIDE1,CHEM1,2:R3-1:R1|PEPTIDE1,CHEM1,8:R3-1:R2$$$V2.0)					< 100 nM	< 100 nM
CCCC[C@H](NC(=O)COCCOCCNC(=O)CN1CCN(CC(=O)O)CCN(CC(=O)O)CCN(CC(=O)O)CC1)C(=O)N[C@H]1CSC2=C(SC[C@@H](C(=O)N[C@@H](CC(=O)O)C(N)=O)NC(=O)[C@H](Cc3ccccc3)CC(=O)[C@H](CCC(N)=O)NC(=O)[C@H]([C@@H](C)O)NC(=O)[C@@H]3CCCN3C(=O)[C@@H]3CCCN3C1=O)C(=O)NC2=O [Compound 2004, DOTA-O2Oc-Nle-[Cys(mli)-Pro-Pro-Thr-Gln-Phe-Cys]-Asp-NH2] ({DOTA-AEEA}-[Nle]CPPT[X1]CD-NH2; linker 2-7 via Maleimide(3,4-diyl))	< 100 nM	< 100 nM	< 100 nM	< 100 nM		
CCCC[C@H](NC(=O)CN1CCN(CC(=O)O)CCN(CC(=O)O)CCN(CC(=O)O)CC1)C(=O)N[C@H]1CSC2=C(SC[C@@H](C(=O)N[C@@H](CC(=O)O)C(N)=O)NC(=O)[C@H](Cc3ccccc3)CC(=O)[C@H](CCC(N)=O)NC(=O)[C@H]([C@@H](C)O)NC(=O)[C@@H]3CCCN3C(=O)[C@@H]3CCCN3C1=O)C(=O)NC2=O [Compound 2003, DOTA-Nle-[Cys(mli)-Pro-Pro-Thr-Gln-Phe-Cys]-Asp-NH2] ({DOTA}-[Nle]CPPT[X1]CD-NH2; linker 2-7 via Maleimide(3,4-diyl))	< 100 nM	< 100 nM				
CCCC[C@H](NC(=O)CCC(=O)NCCCOCCOCCOCCCNC(=O)CN1CCN(CC(=O)O)CCN(CC(=O)O)CCN(CC(=O)O)CC1)C(=O)N[C@H]1CSSC[C@@H](C(=O)N[C@@H](CC(=O)O)C(=O)N[C@@H](Cc2c[nH]cn2)C(=O)N[C@@H](Cc2ccccc2)C(=O)N[C@@H](CCCNC(=N)N)C(=O)N[C@@H](CC(=O)O)C(N)=O)NC(=O)[C@H](Cc2ccccc2)NC(=O)[C@H](CCC(=O)O)NC(=O)[C@H]([C@@H](C)O)NC(=O)[C@@H]2CCCN2C(=O)[C@@H]2CCCN2C1=O [Compound 1006, DOTA-Ttds-Nle-[Cys-Pro-Pro-Thr-Glu-Phe-Cys]-Asp-His-Phe-Arg-Asp-NH2] ({X4-Suc}-[Nle]CPPTEFCDHFRD-NH2; disulfide 2-8)	< 100 nM	< 100 nM				

Further lines, with some results ahead:

IC50 [1, 2]	IC50 (Recombinant human FAP; [3])	IC50 [1, 4]	IC50 (Recombinant human FAP; [5])	SMILES	IC50 [1]	IC50 (Recombinant human FAP)
< 100 nM	< 100 nM			CCCCCC(=O)N[C@H]1CSSC[C@@H](C(=O)N[C@@H](CC(=O)O)C(=O)N[C@@H](CCCCNC(=O)CN2CCN(CC(=O)O)CCN(CC(=O)O)CCN(CC(=O)O)CC2)C(N)=O)NC(=O)[C@H](Cc2ccccc2)NC(=O)[C@H](CCC(N)=O)NC(=O)[C@H]([C@@H](C)O)NC(=O)[C@@H]2CCCN2C(=O)[C@@H]2CCCN2C1=O [Compound 1016, Hex-[Cys-Pro-Pro-Thr-Gln-Phe-Cys]-Asp-Lys(DOTA)-NH2] (Hexanoyl-CPPTQFCDK(DOTA)-NH2; disulfide 1-7)		
< 100 nM	< 100 nM			CCCC[C@H](NC(=O)CCC(=O)NCCCOCCOCCOCCCNC(=O)CN1CCN(CC(=O)O)CCN(CC(=O)O)CCN(CC(=O)O)CC1)C(=O)N[C@H]1CSC2=C(SC[C@@H](C(=O)N[C@@H](CC(=O)O)C(N)=O)NC(=O)[C@H](Cc3ccccc3)NC(=O)[C@H](CCC(N)=O)NC(=O)[C@H]([C@@H](C)O)NC(=O)[C@@H]3CCCN3C(=O)[C@@H]3CCCN3C1=O)C(=O)N(C)C2=O [Compound 2016, DOTA-Ttds-Nle-[Cys(mli(Me))-Pro-Pro-Thr-Gln-Phe-Cys]-Asp-NH2] ({X4-Suc}-[Nle]CPPTQFCD-NH2; linker 2-8 via X7)		
< 100 nM	< 100 nM	< 100 nM	< 100 nM	CCCC[C@H](NC(=O)CCC(=O)NCCCOCCOCCOCCCNC(=O)CN1CCN(CC(=O)O)CCN(CC(=O)O)CCN(CC(=O)O)CC1)C(=O)N[C@H]1CSC2=C(SC[C@@H](C(=O)N[C@@H](CC(=O)O)C(N)=O)NC(=O)[C@H](Cc3ccccc3)CC(=O)[C@H](CCC(N)=O)NC(=O)[C@H]([C@@H](C)O)NC(=O)[C@@H]3CCCN3C(=O)[C@@H]3CCCN3C1=O)C(=O)NC2=O [Compound 2005, DOTA-Ttds-Nle-[Cys(mli)-Pro-Pro-Thr-Gln-Phe-Cys]-Asp-NH2]		
< 100 nM	< 100 nM			CCCC[C@H](NC(=O)CCC(=O)NCCCOCCOCCOCCCNC(=O)CC[C@H](C(=O)O)N1CCN(CC(=O)O)CCN(CC(=O)O)CC1)C(=O)N[C@H]1CSC2=C(SC[C@@H](C(=O)NCCC(=O)O)NC(=O)[C@H](Cc3ccccc3)NC(=O)[C@H](CCC(N)=O)NC(=O)[C@H]([C@@H](C)O)NC(=O)[C@@H]3CCCN3C(=O)[C@@H]3CCCN3C1=O)C(=O)NC2=O [Compound 2021, NODAGA-Ttds-Nle-[Cys(mli)-Pro-Pro-Thr-Gln-Phe-Cys]-Bal-OH]		
< 100 nM	< 100 nM			CCCCCC(=O)N[C@H]1CSSC[C@@H](C(=O)N[C@@H](CCCCNC(=O)CN2CCN(CC(=O)O)CCN(CC(=O)O)CCN(CC(=O)O)CC2)CC(=O)O)NC(=O)[C@H](Cc2ccccc2)NC(=O)[C@H](CCC(N)=O)NC(=O)[C@H]([C@@H](C)O)NC(=O)[C@@H]2CCCN2C(=O)[C@@H]2CCCN2C1=O [Compound 1011, Hex-[Cys-Pro-Pro-Thr-Gln-Phe-Cys]-Bhk(DOTA)-OH]		
< 100 nM	< 100 nM			CCCC[C@H](NC(=O)CCC(=O)NCCCOCCOCCOCCCNC(=O)CC[C@H](C(=O)O)N1CCN(CC(=O)O)CCN(CC(=O)O)CC1)C(=O)N[C@H]1CSSC[C@@H](C(=O)NCCC(=O)O)NC(=O)[C@H](Cc2ccccc2)NC(=O)[C@H](CCC(N)=O)NC(=O)[C@H]([C@@H](C)O)NC(=O)[C@@H]2CCCN2C(=O)[C@@H]2CCCN2C1=O [Compound 1018, NODAGA-Ttds-Nle-[Cys-Pro-Pro-Thr-Gln-Phe-Cys]-Bal-OH]		
< 100 nM	< 100 nM			CCCCCC(=O)N[C@H]1CSSC[C@@H](C(=O)N[C@@H](CC(=O)O)C(=O)N[C@@H](CCCCNC(=O)CC[C@H](C(=O)O)N2CCN(CC(=O)O)CCN(CC(=O)O)CC2)C(N)=O)NC(=O)[C@H](Cc2ccccc2)NC(=O)[C@H](CCC(=O)O)NC(=O)[C@H]([C@@H](C)O)NC(=O)[C@@H]2CCCN2C(=O)[C@@H]2CCCN2C1=O [Compound 1020, Hex-[Cys-Pro-Pro-Thr-Glu-Phe-Cys]-Asp-Lys(NODAGA)-NH2] (Hexanoyl-CPPTEFCDK(X11)-NH2; disulfide 1-7)		
< 100 nM	< 100 nM			CCCCNC(=O)N[C@H]1CSC2=C(SC[C@@H](C(=O)N[C@@H](CC(=O)O)C(=O)N[C@@H](CCCCNC(=O)CN3CCN(CC(=O)O)CCN(CC(=O)O)CCN(CC(=O)O)CC3)C(N)=O)NC(=O)[C@H](Cc3ccccc3)NC(=O)[C@H](CCC(N)=O)NC(=O)C([C@@H](C)O)NC(=O)[C@@H]3CCCN3C(=O)[C@@H]3CCCN3C1=O)C(=O)NC2=O (stereo partly drawn) [Compound 2014, Buur-[Cys(mli)-Pro-Pro-Thr-Gln-Phe-Cys]-Asp-Lys(DOTA)-NH2] ({NHBu-CO}-CPP[ξThr(3R)]QFCDK(DOTA)-NH2; linker 1-7 via Maleimide(3,4-diyl))		

— patent US20240115745A1, “COMPOUNDS COMPRISING A FIBROBLAST ACTIVATION PROTEIN LIGAND AND USE THEREOF” (3B PHARMACEUTICALS GMBH, priority 2021, published 2024)
